How the values were obtained:
[1] = test system: symptomatic subjects with Huntington's disease; assay: Example 3: open-label dose escalation (10-40 grams per day), tolerability, safety and UHDRS; assay type: in vivo, human
Method: (§1) A two-phase open-label study was conducted to better determine an optimal dose of creatine symptomatic subjects with Huntington's disease. A dose-escalation study (10-40 grams per day) was conducted to determine the maximally tolerated dose (MTD) followed by a de-escalation phase to assess whether brain and serum levels of creatine might be maximal at doses lower than the MTD. Ten subjects were enrolled and followed prospectively for two weeks at each done level increasing in 5-gram increments during dose escalation that lasted 13 weeks. Assessments at each visit included UHDRS, EKG, vital signs, clinical safety and research labs. MRI spectroscopy was conducted prior to baseline at peak done (40 grams) and one month after de-escalation to either 30 or 15 grams daily. To determine an optimal dose, pharmacokinetic as well as clinical data were considered. Once the maximal dose was reached, subjects were assigned one of two lower doses previously taking (15 grams a day (n=5) or 30 grams a day (n=5)). Serum creatine was assessed at baseline, at the end of each 2-week dose escalation step and at the end of the de-escalation phase to assess the correspondence between serum and brain levels of creatine at steady state.

[2] = set-up: species or system human; details: in vivo
Method: as §1

cortical thinning in HD = assay: Example 3: morphometric neuroimaging, rate of cortical thinning; assay type: in vivo, human; details: high dose creatine
Method: High dose creatine slows cortical thinning. Morphometric neuroimaging was performed in all subjects. Longitudinal data from up to three years prior to initiating creatine was available on 6 or the 10 subjects. The rate of thinning of cortical regions in HD was modeled based on the longitudinal data and a change in rate was determined for each region of the group while on creatine. […] Creatine reduced the rate of thinning in almost every region, and the rate of change was statistically significant for several regions and amounted to about a 30% slowing. There was no effect on the rate of caudate volume loss (p=0.67), rate of putamen volume loss, or on total brain volume. The lack of an effect on striatal volumes likely reflects the fact that in these individuals, caudate and putamen volumes were already reduced by more than half and the lack of change in whole brain by the fact that small proportion of the brain is represented by the detected change.

patients with ALS = assay: Example 4: combined survival analysis of two placebo-controlled trials in amyotrophic lateral sclerosis; assay type: in vivo, human; details: 5 gm per day
Method: The two trials analyzed included a total of 211 patients, 103 creatine-treated and 108 placebo-treated subjects.
For this analysis, a measure of treatment effect in an estimated pooled hazard ratio was calculated. This measure gives the risk of death for treated subjects divided by the risk of death for controls. Survival analysis by treatment was also performed for each trial separately. A Cox model was used to assess the hazard ratios and survival by treatment in the pooled data, controlling for trial effect and baseline variables. Baseline characteristics of the study populations were also compared. Continuous variables were compared by treatment and trial, using the analysis of variance by putting both treatment and trial as the […] variables. A Cochran-Mantel-Haenszel test statistic was used to compare discrete variables by treatment and trial, controlling for trial and treatment effects, respectively.

[3] = test system: subjects with early Parkinson's disease (PD); assay: Example 2: safety and tolerability in the early Parkinson's disease trial; assay type: in vivo, human; details: human, in vivo
Method: Study Design and Randomization. This example was a single arm futility study designed to assess creatine and minocycline. A placebo arm for calibration was included in the example. Eligible subjects were randomly assigned in a 1:1:1 fashion to receive 1) 10 g/day of creatine monohydrate and placebo minocycline, 2) placebo creatine monohydrate and 200 mg/day of minocycline, or 3) placebo creatine monohydrate and placebo minocycline. The primary futility analysis was at 12 months of follow-up, but each subject was followed for 18 months for additional safety information. Subjects and investigators were kept blinded to treatment group.
Dosages. Creatine was administered as 5 g sachets mixed with 8 ounces of liquid taken twice a day and minocycline was administered as 100 mg capsules taken twice a day. Both were taken with meals.
Outcome measures. The primary, prespecified outcome measure was the change in the total Unified PD Rating Scale (UPDRS) score from baseline to either the time at which there was sufficient disability to warrant symptomatic therapy for PD or 12 months, whichever came first. Disability was assessed by the sight investigator, based on impairment in ambulation, activities in daily living, and occupational status. The mean change in total UPDRS for each treatment group was compared to a prespecified futility threshold of a 30% reduction in the historically derived change in the total UPDRS, which was based on a placebo arm of a previous clinical trial. Tolerability was defined as the proportion of subjects taking study drug for the full 12 months. All […] adverse events (SAEs) were reviewed by the study medical monitor and an independent medical monitor. Both the site investigator and medical monitors assessed the potential relationship between SAEs and study drug.
Study Procedures. At the screening visit, the purpose and potential risks were explained to potential subjects and each subject gave written consent. […] Blood was obtained for serum chemistry and complete blood count. Participants were reevaluated at 1, 3, 6, 9, and 12 months (±6 days) after the baseline visit using the battery of clinical scales and blood was drawn again at 6 and 12 months.

CN(CC(=O)O)C(=N)N [Creatine, creatine monohydrate]
Dose tolerated by all subjects during dose escalation ([1]; 10 subjects, 5-gram increments, two weeks per dose level, no withdrawals): up to 40 grams/day | Changes in UHDRS subscores ([1]; dose escalation 10-40 grams per day): not significant | Adverse events at high doses ([1]; in vivo): increased numbers of adverse events | Average creatinine level ([1]; in vivo): 1.28 ± 0.16 mg/dL | BUN levels ([1]; in vivo): did not increase | Serious adverse events, laboratory abnormalities, EKG ([1]; in vivo): no serious adverse events, no significant laboratory abnormalities and no EKG alterations | Tolerability at selected dose ([1]; in vivo): excellent tolerability | Dose at which serum creatine levels reached a plateau ([2]; human): 30-35 grams/day | Brain levels of creatine in the frontal cortex by MRI spectroscopy [2]: continued increases | Effect on rate of caudate volume loss, rate of putamen volume loss, total brain volume (cortical thinning in HD; caudate p=0.67): no effect | Slowing of the rate of cortical thinning (cortical thinning in HD; several cortical regions statistically significant, longitudinal data on 6 of 10 subjects): ~30% | Improvement of median survival over placebo (patients with ALS; pooled data): two-to-three | Adjusted hazard ratio, creatine group relative to placebo group (patients with ALS; pooled data of two trials, Cox model, 95% confidence interval 0.11 to 1.04, p=0.059): 0.34 | Median survival (patients with ALS; pooled data, placebo 27 months): 87 months | Hazard ratio, homogeneity of effect between trials (patients with ALS; p=0.062, 95% confidence interval 0.11 to 1.06): 0.34 | Patients with dose reductions [3]: 8
